From patent US11000033B2, “Ketone or oxime compound, and herbicide” (NISSAN CHEMICAL CORPORATION, priority 2014, dated 2021)

Experiments:
Assay type in all cases: in vivo
[1] = tested on: beet; experiment: Test Example 4: effect on crop by soil treatment (symbol f); conditions: for f: beet, effect grade on crop: 320 g/ha
Procedure, shortened: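 Plants are raised in a greenhouse (25° C. to 30° C.) from spot-sown seed, which sits under about 1.5 cm of sterilized diluvial soil in a box shared with weed species.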

[2] = tested on: wheat; experiment: Test Example 5: effect on crop by foliage application, plastic box (symbol e); conditions: 320 g/ha, 3 weeks after application
Procedure, shortened: (§1)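 Crop and weed seeds sown in spots in sterilized diluvial soil in plastic boxes and covered with about 1.5 cm soil. Plants raised in a greenhouse at 25° C. to 30° C. for foliar application.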

[3] = tested on: Setaria viridis; experiment: Test Example 5: herbicidal effect by foliage application, plastic box (symbol G); conditions: 320 g/ha, 3 weeks after application
Procedure, shortened: (§2)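 Emulsion formulation, diluted with water to the intended rate, was applied uniformly to leaves by small sprayer. Recipients were 14-day greenhouse-grown seedlings (25° C. to 30° C.). Assessment followed at 3 weeks.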

[4] = tested on: Echinochloa crus-galli var. crus-galli; experiment: Test Example 4: herbicidal effect by soil treatment (symbol H); conditions: for H: Echinochloa crus-galli var. crus-galli, herbicidal effect grade: 320 g/ha
Procedure, shortened: (§3)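 Seeds were sown in sterilized diluvial soil, covered with about 1.5 cm of soil, and the soil surface was sprayed with a water-diluted emulsion of the compound at a predetermined rate. Plants grew in a greenhouse at 25° C. to 30° C.; effects were scored visually 3 weeks after application.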

[5] = tested on: Cyperus difformis; experiment: Test Example 3: herbicidal effect by foliage application, Wagner pot (symbol E); conditions: application herbicide amount 320 g/ha
Procedure, shortened: (§4)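 Plants sown in submerged alluvial soil (water depth 0.1–0.5 cm) in a 25–30 °C greenhouse and grown 14 days. An emulsion of the compound diluted in water to a set herbicide amount was sprayed uniformly on foliage. Effect on each plant scored 3 weeks after application.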

[6] = tested on: Veronica persica; experiment: Test Example 5: herbicidal effect by foliage application, plastic box (symbol R); conditions: 320 g/ha, 3 weeks after application
Procedure, shortened: as §2

[7] = tested on: transplanted rice plant; experiment: Test Example 1: effect on crop, application before weed generation in submerged conditions (symbol a); conditions: application herbicide amount 320 g/ha
Procedure, shortened: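 Rice at 2.5 leaf stage transplanted into submerged soil (4 cm depth) sown with three weed species; herbicide applied before weed emergence.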

[8] = tested on: corn; experiment: Test Example 4: effect on crop by soil treatment (symbol c); conditions: for c: corn, effect grade on crop: 320 g/ha
Procedure, shortened: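 Crop seed is sown in spots together with several weed species in a box of sterilized diluvial soil. It is covered by about 1.5 cm of soil and kept in a greenhouse held between 25° C. and 30° C.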

[9] = tested on: Lolium multiflorum Lam.; experiment: Test Example 4: herbicidal effect by soil treatment (symbol K); conditions: for K: Lolium multiflorum Lam., herbicidal effect grade: 320 g/ha
Procedure, shortened: as §3

[10] = tested on: Leptochloa chinensis; experiment: Test Example 3: herbicidal effect by foliage application, Wagner pot (symbol D); conditions: application herbicide amount 320 g/ha
Procedure, shortened: as §4

[11] = tested on: Scirpus juncoides; experiment: Test Example 1: herbicidal activity, application before weed generation in submerged conditions (symbol B); conditions: application herbicide amount 320 g/ha
Procedure, shortened: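 Pre-emergence, paddy conditions: emulsifiable formulation diluted in water, dosed onto floodwater (4 cm depth) on sowing day. Alluvial soil; weeds sown mixed; rice transplanted at 2.5-leaf stage. Greenhouse 25–30 °C, 3 wk. Score 0–5 (5 = ≥90% kill, 0 = ≤5%).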

[12] = tested on: Amaranthus retroflexus; experiment: Test Example 4: herbicidal effect by soil treatment (symbol N); conditions: for N: Amaranthus retroflexus, herbicidal effect grade: 320 g/ha
Procedure, shortened: as §3

[13] = tested on: soybean; experiment: Test Example 5: effect on crop by foliage application, plastic box (symbol d); conditions: 320 g/ha, 3 weeks after application
Procedure, shortened: as §1

[14] = tested on: Veronica persica; experiment: Test Example 4: herbicidal effect by soil treatment (symbol R); conditions: for R: Veronica persica, herbicidal effect grade: 320 g/ha
Procedure, shortened: as §3

[15] = application herbicide amount 320 g/ha

Row | SMILES | f (beet) effect on crop grade [1, 15] | e: wheat, effect on crop grade [2] | G: Setaria viridis, herbicidal effect grade [3] | H (Echinochloa crus-galli var. crus-galli) herbicidal effect grade [4, 15] | herbicidal effect on E, grade 0-5 [5] | R: Veronica persica, herbicidal effect grade [6] | Effect grade on crop, a: transplanted rice plant [7] | c (corn) effect on crop grade [8, 15] | K (Lolium multiflorum Lam.) herbicidal effect grade [9, 15] | herbicidal effect on D (Leptochloa chinensis), grade 0-5 [10] | Herbicidal effect grade, B: Scirpus juncoides [11] | N (Amaranthus retroflexus) herbicidal effect grade [12, 15] | d: soybean, effect on crop grade [13] | R (Veronica persica) herbicidal effect grade [14, 15] | f: beet, effect grade on crop [1] | e: wheat, effect on crop (criteria 0-5) [2] | G: Setaria viridis, herbicidal effect (criteria 0-5) [3] | H: Echinochloa crus-galli var. crus-galli, herbicidal effect grade [4] | R: Veronica persica, herbicidal effect (criteria 0-5) [6] | c: corn, effect grade on crop [8] | further results
1 | CON=C(C)CC1CC(OC(=O)C(C)(C)Oc2cccc(Cl)c2)=C(c2c(C)cc(C)cc2C)C1=O (stereo not drawn) [1-065] | 0 (Herbicidal ratio of 5% or lower (almost no effect)) | 5 (Herbicidal ratio of 90% or more (almost completely withered)) | 5 (Herbicidal ratio of 90% or more (almost completely withered)) | 5 (Herbicidal ratio of 90% or more (almost completely withered)) | 5 (Herbicidal ratio of 90% or more (almost completely withered)) | 3 (Herbicidal ratio of 40% or higher and lower than 70%) | 5 (Herbicidal ratio of 90% or more (almost completely withered)) | 5 (Herbicidal ratio of 90% or more (almost completely withered)) | 5 (Herbicidal ratio of 90% or more (almost completely withered)) | 5 (Herbicidal ratio of 90% or more (almost completely withered)) | 5 (Herbicidal ratio of 90% or more (almost completely withered)) | 5 (Herbicidal ratio of 90% or more (almost completely withered)) | 4 (Herbicidal ratio of 70% or higher and lower than 90%) | 0 (Herbicidal ratio of 5% or lower (almost no effect)) |  |  |  |  |  |  | 
2 | CON=C(CC1CC(O)=C(c2c(C)cc(Br)cc2C)C1=O)C1CC1 (stereo not drawn) [9-002] |  | 3 (Herbicidal ratio of 40% or higher and lower than 70%) | 5 (Herbicidal ratio of 90% or more (almost completely withered)) |  |  | 1 (Herbicidal ratio of 5% or higher and lower than 20%) | 5 (Herbicidal ratio of 90% or more (almost completely withered)) |  |  |  | 2 (Herbicidal ratio of 20% or higher and lower than 40%) |  | 0 (Herbicidal ratio of 5% or lower (almost no effect)) |  |  |  |  |  |  |  | Effect on crop grade, f: beet [1, 15]: 0 (Herbicidal ratio of 5% or lower (almost no effect)); Herbicidal effect grade, H: Echinochloa crus-galli var. crus-galli [4, 15]: 5 (Herbicidal ratio of 90% or more (almost completely withered)); E herbicidal effect grade ([5]; Table 24): 5 (Herbicidal ratio of 90% or more (almost completely withered)); Effect on crop grade, c: corn [8, 15]: 3 (Herbicidal ratio of 40% or higher and lower than 70%); Herbicidal effect grade, K: Lolium multiflorum Lam. [9, 15]: 5 (Herbicidal ratio of 90% or more (almost completely withered)); D (Leptochloa chinensis) herbicidal effect grade ([10]; Table 24): 5 (Herbicidal ratio of 90% or more (almost completely withered)); Herbicidal effect grade, N: Amaranthus retroflexus [12, 15]: 0 (Herbicidal ratio of 5% or lower (almost no effect)); Herbicidal effect grade, R: Veronica persica [14, 15]: 0 (Herbicidal ratio of 5% or lower (almost no effect))
3 | CON=C(C)CC1CC(OC(=O)COCC(F)(F)F)=C(c2c(C)cc(C)cc2C)C1=O (stereo not drawn) [1-092] |  |  |  |  | 5 (Herbicidal ratio of 90% or more (almost completely withered)) |  | 5 (Herbicidal ratio of 90% or more (almost completely withered)) |  |  | 5 (Herbicidal ratio of 90% or more (almost completely withered)) | 5 (Herbicidal ratio of 90% or more (almost completely withered)) |  |  |  | 0 (Herbicidal ratio of 5% or lower (almost no effect)) | 4 (Herbicidal ratio of 70% or higher and lower than 90%) | 5 (Herbicidal ratio of 90% or more (almost completely withered)) | 5 (Herbicidal ratio of 90% or more (almost completely withered)) | 0 (Herbicidal ratio of 5% or lower (almost no effect)) | 5 (Herbicidal ratio of 90% or more (almost completely withered)) | K: Lolium multiflorum Lam., herbicidal effect grade [9]: 5 (Herbicidal ratio of 90% or more (almost completely withered)); N: Amaranthus retroflexus, herbicidal effect grade [12]: 3 (Herbicidal ratio of 40% or higher and lower than 70%); d: soybean, effect on crop (criteria 0-5) [13]: 0 (Herbicidal ratio of 5% or lower (almost no effect)); R: Veronica persica, herbicidal effect grade [14]: 0 (Herbicidal ratio of 5% or lower (almost no effect))
4 | CON=C(C)CC1CC(OC(=O)COc2ccc(C=O)cc2)=C(c2c(C)cc(C)cc2C)C1=O (stereo not drawn) [1-079] |  |  |  |  | 5 (Herbicidal ratio of 90% or more (almost completely withered)) |  | 5 (Herbicidal ratio of 90% or more (almost completely withered)) |  |  | 5 (Herbicidal ratio of 90% or more (almost completely withered)) | 5 (Herbicidal ratio of 90% or more (almost completely withered)) |  |  |  | 0 (Herbicidal ratio of 5% or lower (almost no effect)) | 4 (Herbicidal ratio of 70% or higher and lower than 90%) | 5 (Herbicidal ratio of 90% or more (almost completely withered)) | 5 (Herbicidal ratio of 90% or more (almost completely withered)) | 3 (Herbicidal ratio of 40% or higher and lower than 70%) | 4 (Herbicidal ratio of 70% or higher and lower than 90%) | K: Lolium multiflorum Lam., herbicidal effect grade [9]: 5 (Herbicidal ratio of 90% or more (almost completely withered)); N: Amaranthus retroflexus, herbicidal effect grade [12]: 4 (Herbicidal ratio of 70% or higher and lower than 90%); d: soybean, effect on crop (criteria 0-5) [13]: 4 (Herbicidal ratio of 70% or higher and lower than 90%); R: Veronica persica, herbicidal effect grade [14]: 0 (Herbicidal ratio of 5% or lower (almost no effect))
5 | CC(CC1CC(O)=C(c2c(C)cc(C)cc2C)C1=O)=NOC(C)C (stereo not drawn) [1-052] | 0 (Herbicidal ratio of 5% or lower (almost no effect)) | 5 (Herbicidal ratio of 90% or more (almost completely withered)) | 5 (Herbicidal ratio of 90% or more (almost completely withered)) | 5 (Herbicidal ratio of 90% or more (almost completely withered)) | 5 (Herbicidal ratio of 90% or more (almost completely withered)) | 3 (Herbicidal ratio of 40% or higher and lower than 70%) | 5 (Herbicidal ratio of 90% or more (almost completely withered)) | 3 (Herbicidal ratio of 40% or higher and lower than 70%) | 5 (Herbicidal ratio of 90% or more (almost completely withered)) | 5 (Herbicidal ratio of 90% or more (almost completely withered)) | 5 (Herbicidal ratio of 90% or more (almost completely withered)) | 3 (Herbicidal ratio of 40% or higher and lower than 70%) | 4 (Herbicidal ratio of 70% or higher and lower than 90%) | 0 (Herbicidal ratio of 5% or lower (almost no effect)) |  |  |  |  |  |  | 
6 | CCC(C)C(CC1CC(O)=C(c2c(C)cc(C)cc2C)C1=O)=NOC (stereo not drawn) [1-066] | 0 (Herbicidal ratio of 5% or lower (almost no effect)) | 0 (Herbicidal ratio of 5% or lower (almost no effect)) | 5 (Herbicidal ratio of 90% or more (almost completely withered)) | 5 (Herbicidal ratio of 90% or more (almost completely withered)) | 5 (Herbicidal ratio of 90% or more (almost completely withered)) | 3 (Herbicidal ratio of 40% or higher and lower than 70%) | 5 (Herbicidal ratio of 90% or more (almost completely withered)) | 4 (Herbicidal ratio of 70% or higher and lower than 90%) | 5 (Herbicidal ratio of 90% or more (almost completely withered)) | 2 (Herbicidal ratio of 20% or higher and lower than 40%) | 0 (Herbicidal ratio of 5% or lower (almost no effect)) | 0 (Herbicidal ratio of 5% or lower (almost no effect)) | 0 (Herbicidal ratio of 5% or lower (almost no effect)) | 0 (Herbicidal ratio of 5% or lower (almost no effect)) |  |  |  |  |  |  | 
